# Source: patent US5288718A, “Method for decorporating radioactive isotope from living organism” (priority 1989, dated 1994)
# Structures can show the parent of a compound that is named as a salt.
# Assays:
# [1] = with increasing atomic number (decreasing ionic size); cited from earlier work
# [2] = Ca^2+ compared with Sr^2+; cited from earlier work
# Hygroscopicity = assay type: physicochemical; conditions: sodium salt versus lithium salt
# [3] = Lethal dose determination, intravenous, mortality within 30 days; conditions: in vivo, DMCRYP salt×NaBr (x=2.5-8) as prepared according to Example I
# Method: Healing power of the composition has been evidenced by animal tests. In this way, the minimum and average lethal doses (LD0.1 and LD50, respectively) have been established.
# For the determination of lethal doses, the active ingredient was administered intravenously at increasing concentrations to the animals. Minimum and average lethal doses were calculated from the mortality within 30 days. […] On every occasion, one tenth of this dose was introduced into each animal in this experiment.
# Water solubility = assay type: physicochemical; conditions: product of Example 1
# [4] = Whole-body retention of Sr-85 introduced into the peritoneal cavity, female Wistar rats (FIG. 2, Example 2); assay type: in vivo; conditions: equimolar concentration
# From the text: (§1) In order to test the effect of DMCRYP on enhancing the decorporation of radiostroncium and the rare earth metal radiocerium from the body, male and female Swiss mice and Wistar rats were selected. […] In the comparative tests, a known polyaminopolycarboxylic acid-type decorporant (decorporating agent), calcium-trisodium salt of DTPA (diethylenetriaminopentacetic acid) (Heyl and Co., Berlin) was used at equimolar concentration. The amount of residual isotopes in the animal organisms was determined by whole-body activity measurements in every 1 to 4 days and was expressed as per cent of activity introduced.
# [5] = Whole-body retention of Sr-85 introduced into the peritoneal cavity, mice (FIG. 1); assay type: in vivo, Swiss mice; conditions: equimolar concentration, isotope in peritoneal cavity
# From the text: as §1
# [6] = Whole-body retention of cerium-144 introduced peritoneally (FIG. 6, Example 6); assay type: in vivo; conditions: female Swiss mice
# From the text: as §1
# Treatments were repeated twice, on the Days 2 and 4.
# [7] = Whole-body retention of radiostroncium in skin or subcutaneous interstitial tissues (FIG. 3, Example 3); assay type: in vivo; conditions: subcutaneous/skin isotope
# From the text: as §1
structure (smiles),measurement,setting,value
"O=C(O)CN1CCOCCOCCN(CC(=O)O)CCOCCOCC1 [1,10-diaza-4,7,13,16-tetraoxacyclooctadecane-N,N'-diacetic acid]","Stability constants of rare earth metal complexes, trend",[1],decrease with the increasing atomic number
same,Relative stability of Ca^2+ and Sr^2+ complexes,[2],identical within the experimental error
"O=C(O)C(C(=O)O)N1CCOCCOCCN(C(C(=O)O)C(=O)O)CCOCCOCC1 [DMCRYP, 1,4,10,13-tetraoxa-7,16-diazacyclooctadecane-N,N'-dimalonic acid tetrasodium salt]",Hygroscopicity,Hygroscopicity; listed as sodium salt,not hygroscopic
same,LD50 at 720 h,[3],1050 µmol/kg
same,Water solubility,Water solubility,very soluble
"O=C(O)CN(CCN(CC(=O)O)CC(=O)O)CCN(CC(=O)O)CC(=O)O [DTPA, diethylenetriaminopentacetic acid]",Retention values compared to control,[4],lower than those in the control but the difference was not statistically significant
same,Removal of Sr isotope from the animal body,[5],ineffective
same,Relative stability of Ca^2+ and Sr^2+ complexes,[2],considerably more stable with Ca^2+ than with Sr^2+
same,Whole-body retention of cerium-144,"[6]; Day 2, after first treatment, 100 μmole/kg i.v. 30 minutes after isotope, control 85.9",72.8%
same,Effect of second and third treatments,"[6]; 100 μmole/kg, Days 2 and 4",ineffective
same,Effect of treatment on whole-body retention,[7],ineffective
"O=C(O)CN(CCN(CC(=O)O)CC(=O)O)CC(=O)O [EDTA, ethylenediaminetetraacetic acid]",Relative stability of Ca^2+ and Sr^2+ complexes,[2],considerably more stable with Ca^2+ than with Sr^2+
O=C(O)C(C(=O)O)N1CCOCCOCCN(C(C(=O)O)C(=O)O)CCOCCOCC1 [lithium salt],Hygroscopicity,Hygroscopicity,hygroscopic
